Test [1] concerns the target GDP-bound KRAS wild-type protein (Homo sapiens, UniProt P01116). Description: Binding to KRAS by surface plasmon resonance (SPR), Single Cycle Kinetics. Conditions: GDP-bound KRAS wild-type protein, read-out: KRAS KD. On the technique in general: Surface plasmon resonance follows binding to a sensor surface in real time, without labels.
Test [2] deals with GDP-bound NRAS wild-type protein (Homo sapiens, UniProt P01111). Description: Binding to NRAS by surface plasmon resonance (SPR), Single Cycle Kinetics. Conditions: for NRAS/KRAS (ratio of KD value with respect to NRAS to KD value with respect to KRAS) / NRAS/KRAS (ratio of KD value for NRAS to KD value for KRAS): SPR, GDP-bound NRAS wild-type protein vs GDP-bound KRAS wild-type protein.

Test [3] addresses GDP-bound HRAS wild-type protein (Homo sapiens, UniProt P01112). Description: Binding to HRAS by surface plasmon resonance (SPR), Single Cycle Kinetics. Conditions: for HRAS/KRAS (ratio of KD value with respect to HRAS to KD value with respect to KRAS) / HRAS/KRAS (ratio of KD value for HRAS to KD value for KRAS): SPR, GDP-bound HRAS wild-type protein vs GDP-bound KRAS wild-type protein.

[4] abbreviates: SPR Single Cycle Kinetics, 1:1 binding model.

Where two headings read alike, the source gives them in different places. Where a SMILES comes first, the peptide text is derived from it. Bridges are numbered along the chain shown (N, C = ends). [ ]: non-standard residue; d: D form. The star is where a group is joined. hPhe(3-Cl-4-CF3) = N[C@@H](CCc1ccc(C(F)(F)F)c(Cl)c1)C(=O)O; NPrPhe(4-CF3) = CCCN[C@@H](Cc1ccc(C(F)(F)F)cc1)C(=O)O; NEtPhe(4-CF3) = CCN[C@@H](Cc1ccc(C(F)(F)F)cc1)C(=O)O; NMePhe(4-Me) = CN[C@@H](Cc1ccc(C)cc1)C(=O)O; NMeGly(cPent) = CN[C@H](C(=O)O)C1CCCC1; Pro(4,4-F2) = O=C(O)[C@@H]1CC(F)(F)CN1; Hyp = O=C(O)[C@@H]1C[C@@H](O)CN1; NMeD = CN[C@@H](CC(=O)O)C(=O)O; NMeL = CN[C@@H](CC(C)C)C(=O)O; NMeNva = CCC[C@H](NC)C(=O)O; Morpholide = C1CN(*)CCO1; NMeA = CN[C@@H](C)C(=O)O; Ac5c = NC1(C(=O)O)CCCC1; Aze = O=C(O)[C@@H]1CCN1; Ac4c = NC1(C(=O)O)CCC1; NEtG = CCNCC(=O)O; Sar = CNCC(=O)O

Chain of GDP-bound NRAS wild-type protein (P01111 whole entry): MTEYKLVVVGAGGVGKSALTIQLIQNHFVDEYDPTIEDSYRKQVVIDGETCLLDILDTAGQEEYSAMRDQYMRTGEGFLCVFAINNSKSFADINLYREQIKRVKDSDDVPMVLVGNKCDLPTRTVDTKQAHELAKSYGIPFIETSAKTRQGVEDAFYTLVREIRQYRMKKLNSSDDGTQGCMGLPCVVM
Chain of GDP-bound HRAS wild-type protein (P01112 whole entry): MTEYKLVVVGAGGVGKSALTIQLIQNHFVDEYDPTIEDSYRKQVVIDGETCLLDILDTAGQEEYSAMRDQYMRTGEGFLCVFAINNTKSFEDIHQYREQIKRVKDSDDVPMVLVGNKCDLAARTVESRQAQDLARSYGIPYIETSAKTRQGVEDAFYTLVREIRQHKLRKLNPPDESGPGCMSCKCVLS
Chain of GDP-bound KRAS wild-type protein (P01116 whole entry): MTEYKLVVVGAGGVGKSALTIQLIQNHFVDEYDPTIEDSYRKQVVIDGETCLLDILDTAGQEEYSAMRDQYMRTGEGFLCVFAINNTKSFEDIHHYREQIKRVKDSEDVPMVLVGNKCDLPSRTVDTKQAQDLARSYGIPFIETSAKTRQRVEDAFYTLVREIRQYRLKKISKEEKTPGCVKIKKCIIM

The Kd is the concentration at which binding is half-saturated. For the compound `CCCN1C(=O)CN(C)C(=O)CNC(=O)[C@H]([C@@H](C)CC)NC(=O)[C@H](CC(C)C)N(C)C(=O)C[C@@H](C(=O)N(C)C)N(C)C(=O)[C@H](C2CCCC2)N(C)C(=O)C2(CCC2)NC(=O)[C@@H]2CC(F)(F)CN2C(=O)[C@H](CCc2ccc(C(F)(F)F)c(Cl)c2)NC(=O)CN(C)C(=O)[C@@H]1Cc1ccc(C(F)(F)F)cc1` [PP0420] ([NMeL]IG[Sar][NPrPhe(4-CF3)][Sar][hPhe(3-Cl-4-CF3)][Pro(4,4-F2)][Ac4c][NMeGly(cPent)][NMeD]-NMe2; lactam N-11), the Kd in test [1] (setting [4]) came to 0.034 nM. Further, the “NRAS/KRAS (ratio of KD value with respect to NRAS to KD value with respect to KRAS)” value in test [2] was “B (a compound having 3 or more and less than 10 is denoted as B)”. The “HRAS/KRAS (ratio of KD value with respect to HRAS to KD value with respect to KRAS)” value in test [3] was “C (A compound having a KD ratio of 0.1 or more and less than 3 is denoted as C)”.
Turning to `CCCN1C(=O)CN(C)C(=O)CN(C)C(=O)[C@H]([C@@H](C)CC)NC(=O)[C@H](CC(C)C)N(C)C(=O)C[C@@H](C(=O)N(C)C)NC(=O)[C@H](C2CCCC2)N(C)C(=O)C2(CCC2)NC(=O)[C@@H]2C[C@@H](OCC)CN2C(=O)[C@H](CCc2ccc(C(F)(F)F)c(Cl)c2)NC(=O)CN(C)C(=O)[C@@H]1Cc1ccc(C(F)(F)F)cc1` [PP0360] ([NMeL]I[Sar][Sar][NPrPhe(4-CF3)][Sar][hPhe(3-Cl-4-CF3)][Hyp](Et)[Ac4c][NMeGly(cPent)]D-NMe2; lactam N-11), the Kd in test [1] (setting [4]) is 0.25 nM. Further, in test [2], the “NRAS/KRAS (ratio of KD value for NRAS to KD value for KRAS)” value was “B (a compound having 3 or more and less than 10 is denoted as B)”. Moreover, the “HRAS/KRAS (ratio of KD value for HRAS to KD value for KRAS)” value in test [3] is “C (A compound having a KD ratio of 0.1 or more and less than 3 is denoted as C)”.
`CCC[C@H]1C(=O)N[C@@H]([C@@H](C)CC)C(=O)N(C)[C@@H](C)C(=O)N2CC[C@H]2C(=O)N(CCC)[C@@H](Cc2ccc(C(F)(F)F)cc2)C(=O)N(C)CC(=O)N[C@@H](CCc2ccc(C(F)(F)F)c(Cl)c2)C(=O)N2CC(F)(F)C[C@H]2C(=O)NC2(CCCC2)C(=O)N(C)[C@@H](C2CCCC2)C(=O)N(C)[C@H](C(=O)N2CCOCC2)CC(=O)N1C` [PP0205] ([NMeNva]I[NMeA][Aze][NPrPhe(4-CF3)][Sar][hPhe(3-Cl-4-CF3)][Pro(4,4-F2)][Ac5c][NMeGly(cPent)][NMeD]-Morpholide; lactam N-11): the Kd in test [1] (setting [4]) was determined as 0.11 nM. Besides, the “NRAS/KRAS (ratio of KD value for NRAS to KD value for KRAS)” value in test [2] was “C (A compound having a KD ratio of 0.1 or more and less than 3 is denoted as C)”. The “HRAS/KRAS (ratio of KD value for HRAS to KD value for KRAS)” value in test [3] was “C (A compound having a KD ratio of 0.1 or more and less than 3 is denoted as C)”.
As for `CC[C@H](C)[C@@H]1NC(=O)[C@H](CC(C)C)NC(=O)C[C@@H](C(=O)N2CCOCC2)N(C)C(=O)[C@H](C2CCCC2)N(C)C(=O)C2(CCCC2)NC(=O)[C@@H]2CCCN2C(=O)[C@H](CCc2cc(F)c(C(F)(F)F)c(F)c2)NC(=O)CN(C)C(=O)[C@H](Cc2ccc(C(F)(F)F)cc2)N2CCCC[C@@H](C2=O)N(C)C(=O)CN(C)C1=O` [PP0590], the Kd in test [1] (setting [4]) stood at 0.27 nM. For the same compound, the “NRAS/KRAS (ratio of KD value with respect to NRAS to KD value with respect to KRAS)” value in test [2] is “C (A compound having a KD ratio of 0.1 or more and less than 3 is denoted as C)”. The “HRAS/KRAS (ratio of KD value with respect to HRAS to KD value with respect to KRAS)” value in test [3] is “B (a compound having 3 or more and less than 10 is denoted as B)”.
With `CC[C@H](C)[C@@H]1NC(=O)[C@H](CC(C)C)N(C)C(=O)C[C@@H](C(=O)N2CCOCC2)N(C)C(=O)[C@H](C2CCCC2)N(C)C(=O)C2(CCCC2)NC(=O)[C@@H]2CCCN2C(=O)[C@H](CCc2ccc(C(F)(F)F)c(Cl)c2)NC(=O)CN(C)C(=O)[C@H](Cc2ccc(Cl)cc2)N2CCCCC[C@@H](C2=O)N(C)C(=O)CN(C)C1=O` [PP0613], in test [1] (setting [4]), the Kd is 0.6 nM. Also, the “NRAS/KRAS (ratio of KD value with respect to NRAS to KD value with respect to KRAS)” value in test [2] is “B (a compound having 3 or more and less than 10 is denoted as B)”. Further, the “HRAS/KRAS (ratio of KD value with respect to HRAS to KD value with respect to KRAS)” value in test [3] was “B (a compound having 3 or more and less than 10 is denoted as B)”.
With `CC[C@H](C)[C@@H]1NC(=O)[C@H](CC(C)C)N(C)C(=O)C[C@@H](C(=O)N2CCOCC2)N(C)C(=O)[C@H](C2CCCC2)N(C)C(=O)C2(CCCC2)NC(=O)[C@@H]2CCCN2C(=O)[C@H](CCc2ccc(C(F)(F)F)c(Cl)c2)NC(=O)CN(CC)C(=O)[C@H](Cc2ccc(C)cc2)N(C)C(=O)CN(CC)C(=O)CN(C)C1=O` [PP0029] ([NMeL]I[Sar][NEtG][NMePhe(4-Me)][NEtG][hPhe(3-Cl-4-CF3)]P[Ac5c][NMeGly(cPent)][NMeD]-Morpholide; lactam N-11), in test [1] (setting [4]), the Kd is 7 nM. The “NRAS/KRAS (ratio of KD value for NRAS to KD value for KRAS)” value in test [2] was “C (A compound having a KD ratio of 0.1 or more and less than 3 is denoted as C)”. For the same compound, the “HRAS/KRAS (ratio of KD value for HRAS to KD value for KRAS)” value in test [3] was “C (A compound having a KD ratio of 0.1 or more and less than 3 is denoted as C)”.
`CCO[C@H]1CCN2C(=O)[C@H](CCc3cc(F)c(C(F)(F)F)c(F)c3)NC(=O)CN(C)C(=O)[C@H](Cc3ccc(C(F)(F)F)cc3)N3CCCCC[C@@H](C3=O)N(C)C(=O)CN(C)C(=O)[C@H]([C@@H](C)CC)NC(=O)[C@H](CC(C)C)N(C)C(=O)C[C@@H](C(=O)N3CCOCC3)N(C)C(=O)[C@H](C3CCCC3)N(C)C(=O)C3(CCC3)NC(=O)[C@H]12` [PP1068]: in test [1] (SPR, Single Cycle Kinetics), the Kd was 1.1 nM. The “NRAS/KRAS (ratio of KD value for NRAS to KD value for KRAS)” value in test [2] was “A (a compound having 10 or more and less than 20 is denoted as A)”. Further, the “HRAS/KRAS (ratio of KD value for HRAS to KD value for KRAS)” value in test [3] is “B (a compound having 3 or more and less than 10 is denoted as B)”.
For the compound `CCC[C@H]1C(=O)N[C@@H]([C@@H](C)CC)C(=O)N(C)CC(=O)N(C)[C@H]2C/C=C\CCN(C2=O)[C@@H](Cc2ccc(C(F)(F)F)cc2)C(=O)N(C)CC(=O)N[C@@H](CCc2ccc(CC)c(Cl)c2)C(=O)N2C[C@H](OCC)C[C@H]2C(=O)NC2(CC(C)(C)C2)C(=O)N(C)[C@@H](C(CC)CC)C(=O)N(C)[C@H](C(=O)N(C)C)CC(=O)N1C` [PP2777], the Kd in test [1] (setting [4]) was determined as 2.4 nM. The “NRAS/KRAS (ratio of KD value with respect to GDP-bound NRAS wild-type protein to KD value with respect to KRAS)” value in test [2] (SPR KD ratio NRAS/KRAS, class symbols) is on record as “AA (a compound having 20 or more is denoted as AA)”. The “HRAS/KRAS (ratio of KD value with respect to GDP-bound HRAS wild-type protein to KD value with respect to KRAS)” value in test [3] (SPR KD ratio HRAS/KRAS, class symbols) is “A (a compound having 10 or more and less than 20 is denoted as A)”.
Regarding `CC[C@H](C)[C@@H]1NC(=O)[C@H](CC(C)C)N(C)C(=O)C[C@@H](C(=O)N2CCOCC2)N(C)C(=O)[C@H](C2CCCC2)N(C)C(=O)C2(CCCC2)NC(=O)[C@@H]2CCCN2C(=O)[C@H](CCc2ccc(C(F)(F)F)c(Cl)c2)NC(=O)CN(C)C(=O)[C@H](Cc2ccc(C(F)(F)F)cc2)N(CC)C(=O)[C@@H]2CCN2C(=O)[C@H](C)N(C)C1=O` [PP0002] ([NMeL]I[NMeA][Aze][NEtPhe(4-CF3)][Sar][hPhe(3-Cl-4-CF3)]P[Ac5c][NMeGly(cPent)][NMeD]-Morpholide; lactam N-11), the Kd in test [1] (setting [4]) came out at 0.18 nM. For the same compound, the “NRAS/KRAS (ratio of KD value for NRAS to KD value for KRAS)” value in test [2] was “C (A compound having a KD ratio of 0.1 or more and less than 3 is denoted as C)”. The “HRAS/KRAS (ratio of KD value for HRAS to KD value for KRAS)” value in test [3] was “C (A compound having a KD ratio of 0.1 or more and less than 3 is denoted as C)”.

The values above are taken from US20240158446A1, “CYCLIC COMPOUND HAVING SELECTIVE INHIBITORY ACTION ON KRAS OVER HRAS AND NRAS” (CHUGAI SEIYAKU KABUSHIKI KAISHA, priority 2021, published 2024).
